Values after ≈ are worked out from the molar mass of the structure shown.
Experiments:
[1] = test system: C. albicans D15.9 (FLC-resistant clinical isolate); test: Broth dilution IC50 / MIC determination; format: cell-based; settings: Candida albicans; for IC50: 24 h, read-out: Anti-Candida Activity (IC50± S.D.) C. albicans D15.9
Description: (§1) Broth dilution technique was employed to determine the IC50 values of all the synthesized 1,2,3 triazole derivatives (3a-c) against C. albicans ATCC 90028, C. glabrata ATCC 90030, C. tropicalis ATCC 750 and four clinical isolates of C. albicans namely D27, D31, D39 (FLC-sensitive) and D15.9 (FLC-resistant). The strains were maintained on yeast extract:peptone:dextrose ([…]) nutrient agar (2.5%) slants at 4°C. The test compounds were dissolved in DMSO with less than 4% concentration of it in the final test volume. Different concentrations (1000… 7.8 μg/mL) of test compounds in Sabouraud dextrose (SD) broth medium were dispensed into the wells, then inoculated with the test organism with approx. 2.5 × 10^3 cells/mL and incubated at 37°C for 24 h. After incubation period, the optical density was measured at 600 nm by using Thermo Scientific Multiskan Go plate reader. […] All the experiments were done in triplicate at separate times.

[2] = test system: C. albicans ATCC 90028; test: Broth dilution IC50 determination; format: cell-based; settings: Candida albicans, ATCC90028, SD broth, 37°C, 24 h, OD 600 nm, read-out: Anti-Candida Activity (IC50± S.D.) C. albicans ATCC90028
Description: as §1

[3] = test system: C. glabrata ATCC 90030; test: Broth dilution IC50 determination; format: cell-based; settings: Nakaseomyces glabratus, ATCC90030, SD broth, 37°C, 24 h, OD 600 nm, read-out: Anti-Candida Activity (IC50± S.D.) C. glabrata ATCC90030
Description: as §1

[4] = test system: C. albicans D31 (FLC-sensitive clinical isolate); test: Broth dilution IC50 determination; format: cell-based; settings: Candida albicans, 24 h; read-out: Anti-Candida Activity (IC50± S.D.) C. albicans D31
Description: as §1

[5] = test system: C. tropicalis ATCC 750; test: Broth dilution IC50 determination; format: cell-based; settings: Candida tropicalis, ATCC750, SD broth, 37°C, 24 h, OD 600 nm, read-out: Anti-Candida Activity (IC50± S.D.) C. tropicalis ATCC750
Description: as §1

[6] = test system: C. albicans D27 (FLC-sensitive clinical isolate); test: Broth dilution IC50 determination; format: cell-based; settings: Candida albicans, 24 h; read-out: Anti-Candida Activity (IC50± S.D.) C. albicans D27
Description: as §1

[7] = test system: C. albicans D39 (FLC-sensitive clinical isolate); test: Broth dilution IC50 determination; format: cell-based; settings: Candida albicans, 24 h; read-out: Anti-Candida Activity (IC50± S.D.) C. albicans D39
Description: as §1

[8] = test system: C. albicans ATCC 90028, C. albicans D27 (FLC-susceptible) and C. albicans D15.9 (FLC-resistant); test: Time kill curve study, three strains; format: cell-based; settings: 40 μg/mL; C. albicans standard and FLC-resistant
Description: Time-kill curves were used for testing the fungicidal or fungistatic nature of the lead inhibitors 3a and 3b. The experimental procedure was performed according to the method reported by Wang et al.. C. albicans ATCC 90028, C. albicans D27 (FLC-susceptible) and C. albicans D15.9 (FLC-resistant) strains were used as test organisms. Fluconazole was used as a positive control. Freshly prepared sterile YEPD medium was inoculated by fresh culture (approx. 2×10^3 cells) of test organisms in different conical flasks. The cells were exposed to the test compounds at 2MIC, MIC and MIC/2 values, separately. All the conical flasks having different sets of test compounds and concentrations were incubated at 37°C and 160 rpm. At predetermined time points (0, 4, 12, 24, and 48 h after incubation with agitation at 37°C), a 100-μL aliquot was removed from every solution and appropriately diluted in sterile water. A 100-μl aliquot from each dilution was spread over the YEPD agar plate. Colony counts were determined after incubation at 37°C for 24 h. All the time-kill curve experiments were conducted in duplicate and mean colony count data (log10 CFU/mL) were plotted as a function of time for each strain.

[9] = Hemolytic assay; format: cell-based; settings: human, 37°C, read-out: Hemolysis of hRBCs
Description: Human blood from a healthy individual was collected in tubes containing EDTA as anti-coagulant. The erythrocytes were harvested by centrifugation for 10 min at 2000 rpm and 20°C, washed three times in PBS. To the pellet, PBS was added to yield a 10% (v/v) erythrocytes/PBS suspension. The 10% suspension was then diluted 1:10 in PBS. From each suspension, 100 μL was added in triplicate to 100 μL of a different dilution series of test compounds in the same buffer in micro centrifuge tubes. […] The tubes were incubated for 1 h at 37°C and then centrifuged for 10 min at 2000 rpm and 20°C. From the supernatant, 150 μL was transferred to a flat-bottomed microtiter plate (Tarson), and the absorbance was measured spectrophotometrically at 450 nm. The hemolysis percentage was calculated by following equation: %Hemolysis=[(A450oftestcompoundtreatedsample−A450ofbuffertreatedsample)÷(A450of1%TritonX−100treatedsample−A450ofbuffertreatedsample)]×100

[10] = test system: ergosterol biosynthesis; test: Ergosterol estimation assay; settings: 40 μg/mL of FLC, 16 h
[11] = test system: C. albicans; test: Disk diffusion assay, appearance of zones (strains not distinguished); format: cell-based
Description: (§2) Disk diffusion assay was performed using C. albicans ATCC 90028 (standard), the two clinical isolates, C. albicans D27 (FLC-susceptible), and C. albicans D15.9 (FLC-resistant) for the lead inhibitors 3a and 3b. The C. albicans cells were inoculated into liquid SD medium and grown over night at 37°C. The cells were then centrifuged at 3000 rpm for 5 min, washed three times with PBS and then suspended in PBS again. Approximately, 10^5 cells/mL were inoculated into molten SD agar medium at 42°C and poured into 100-mm-diameter petriplates. Sterilized 4 mm disks of Whatman paper were placed on solid agar and 1, 2, and 4 μL of 3a and 2, 4, and 8 μL of 3b from the stock solution of 10 mg/mL were spotted on the disk. […] The diameter of zone of inhibition (ZOI) was recorded in millimetres after 48 h and was compared with that of control. This experiment was repeated thrice and values were shown in terms of mean ±standard error of mean.

[12] = test system: ergosterol biosynthesis; test: Ergosterol estimation assay; settings: 40 μg/mL of FLC, 16 h; remark: listed apart in the source
[13] = test system: C. albicans ATCC 90028 (Standard); test: Disk diffusion assay; format: cell-based; settings: 20 μg per disk, 48 h
Description: as §2

[14] = test system: C. albicans D27 (FLC-susceptible); test: Disk diffusion assay; format: cell-based; settings: Candida albicans; 20 μg per disk, 48 h; read-out: Zone of Inhibition
Description: as §2

[15] = test system: C. albicans D15.9 (FLC-resistant); test: Disk diffusion assay; format: cell-based; settings: 48 h
Description: as §2

[16] = test system: C. albicans ATCC 90028 (Standard); test: Growth assay (growth curve); format: cell-based; settings: 40 μg/mL of FLC
Description: (§3) The C. albicans cells were freshly revived by subculture on the SD agar plate. A loopful of inoculum was introduced into the SD broth and cells were grown for 16 h at 37°C before use. Approximately 2×10^3 cells/mL were then inoculated into the freshly prepared 50 mL sterile SD medium. […] At predetermined time periods (0, 2, 4, 6, 8, 10, 12, 14, 16, 18, 20 22, and 24 after incubation with agitation at 37°C), 1 mL aliquot of each sample was removed from the conical flask and growth was measured tubidometrically at 600 nm using Thermo Multiskan spectrophotometer. Optical density was recorded for each concentration against time (h).

[17] = test system: C. albicans D27 (FLC-susceptible); test: Growth assay (growth curve); format: cell-based; settings: 40 μg/mL of FLC
Description: as §3

[18] = test system: C. albicans D15.9 (FLC-resistant); test: Growth assay (growth curve); format: cell-based; settings: 40 μg/mL of FLC
Description: as §3

[19] = target: T1, plasma membrane H+ ATPase (Candida albicans, UniProt P28877); test: Proton extrusion measurement (H+ efflux); format: cell-based, C. albicans ATCC 90028; settings: glucose 5mM alone
T1 construct: endogenous in cells; host or cells: C. albicans ATCC 90028; clinical isolates C. albicans D27 (FLC-susceptible) and D15.9 (FLC-resistant); mid-log phase whole cells
Description: (§4) The proton pumping activity of C. albicans was determined by monitoring acidification of external medium by measuring pH as describe earlier. In brief, the mid-log phase cells were harvested from SD medium by centrifugation at 3000 rpm for 15 min which is followed by three washings with phosphate buffer saline (PBS). A solution containing 0.1 M KCl and 0.1 mM CaCl2 in distilled water was prepared. Compounds 3a and 3b at the concentrations of 50 and 100 μg/mL were separately added in this solution. […] Initial pH was adjusted to 7.0 using 0.01 M HCl/NaOH. Approximately 0.2 g of cells were suspended in each set of solution. Suspension was kept in a double-jacketed glass container with constant stirring. Again, the pH of suspension was maintained as 7.0 for 1 min by using 0.01 N NaOH. The rate of H^+ extrusion was then monitored and calculated from the volume of 0.01 N NaOH consumed per min per mg weight of cells. Glucose has been reported as the stimulator of proton extrusion pump. Therefore above experiment was also repeated in the presence of 5 mM of glucose.

[20] = target: T1, plasma membrane H+ ATPase; test: Proton extrusion measurement (H+ efflux); format: cell-based, C. albicans D27 (FLC-susceptible)
Description: as §4

[21] = target: T1, plasma membrane H+ ATPase; test: cell-based; parameters: species or system C. albicans D15.9 (FLC-resistant)
Description: as §4

[22] = Cell proliferation assay (cytotoxicity); format: cell-based; settings: monkey, Vero cells (monkey kidney fibroblasts), positive control
Description: The in vitro cytotoxicity of compounds 3a and 3b to mammalian cells was also determined. The assay was performed in 96-well tissue culture-treated plates as described earlier. Vero cells (monkey kidney fibroblasts) were seeded to the wells of 96-well plate at a density of 25,000 cells/well and incubated for 24 h. Samples at different concentrations were added and plates were again incubated for 48 h. The number of viable cells was determined by Neutral Red assay. IC50 values were obtained from dose response curves. Doxorubicin was used as a positive control for cytotoxicity.

T1 sequence (P28877 whole entry): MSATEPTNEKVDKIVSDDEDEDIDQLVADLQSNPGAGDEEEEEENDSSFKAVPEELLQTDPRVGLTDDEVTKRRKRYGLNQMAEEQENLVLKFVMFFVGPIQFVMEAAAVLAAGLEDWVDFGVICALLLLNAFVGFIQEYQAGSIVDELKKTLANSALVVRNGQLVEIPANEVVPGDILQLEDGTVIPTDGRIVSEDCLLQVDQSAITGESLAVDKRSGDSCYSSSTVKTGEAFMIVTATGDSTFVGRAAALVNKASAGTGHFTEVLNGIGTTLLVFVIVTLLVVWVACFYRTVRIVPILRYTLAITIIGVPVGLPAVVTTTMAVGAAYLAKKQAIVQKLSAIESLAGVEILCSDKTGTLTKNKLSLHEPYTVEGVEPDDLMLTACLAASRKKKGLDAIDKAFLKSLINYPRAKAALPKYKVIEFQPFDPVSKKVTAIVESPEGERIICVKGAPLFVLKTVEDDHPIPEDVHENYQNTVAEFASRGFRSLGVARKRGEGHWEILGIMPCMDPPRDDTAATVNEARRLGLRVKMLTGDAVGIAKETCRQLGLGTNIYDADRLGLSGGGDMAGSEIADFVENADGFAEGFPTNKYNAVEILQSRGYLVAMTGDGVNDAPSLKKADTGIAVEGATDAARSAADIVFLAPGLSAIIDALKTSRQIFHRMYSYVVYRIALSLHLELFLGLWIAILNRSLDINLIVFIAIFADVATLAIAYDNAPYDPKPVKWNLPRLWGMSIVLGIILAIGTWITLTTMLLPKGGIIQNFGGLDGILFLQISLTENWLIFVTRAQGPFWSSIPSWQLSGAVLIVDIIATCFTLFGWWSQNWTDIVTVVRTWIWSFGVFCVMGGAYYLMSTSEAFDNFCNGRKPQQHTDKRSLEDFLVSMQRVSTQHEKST

Structure (SMILES): c1ccc(Cn2cc(COc3cccc4ccccc34)nn2)cc1 [Compound 3c, 1-Benzyl-4-((naphthalen-1-yloxy)methyl)-1H-1,2,3-triazole]
- IC50 [1]: 66.9 ± 1.84 µg/mL (≈ 212 µM)
- IC50 [2]: 91.2 ± 0.76 µg/mL (≈ 289 µM)
- IC50 [3]: 107 ± 1.41 µg/mL (≈ 339 µM)
- IC50 [4]: 119 ± 2.94 µg/mL (≈ 377 µM)
- IC50 [5]: 38.2 ± 0.83 µg/mL (≈ 121 µM)
- IC50 [6]: 43.7 ± 1.18 µg/mL (≈ 139 µM)
- IC50 [7]: 62.2 ± 1.07 µg/mL (≈ 197 µM)

Structure (SMILES): OC(Cn1cncn1)(Cn1cncn1)c1ccc(F)cc1F [FLC, Fluconazole, reference compound]
- MIC [1]: > 1 µg/mL
- IC50 [1]: > 1000 µg/mL
- CFU/mL, treated versus untreated cells [8]: no significant difference in CFU/mL
- hemolysis at 1 h, 500 μg/mL [9]: 68.6%
- IC50 [2]: 15.6 ± 0.65 µg/mL (≈ 51 µM)
- IC50 [3]: 7.81 ± 0.88 µg/mL (≈ 25.5 µM)
- IC50 [4]: < 7.5 µg/mL
- IC50 [5]: 8.55 ± 1.59 µg/mL (≈ 27.9 µM)
- IC50 [6]: < 7.5 µg/mL
- IC50 [7]: < 7.5 µg/mL
- Decrease in ergosterol content [10]: 100%
- Appearance of zone around disks (clear = fungicidal nature, turbid = fungistatic nature) [11]: turbid
- Decrease in ergosterol content [12]: 96%
- Zone of Inhibition [13]: 26± 1.02 mm
- zone of inhibition at 20 µg/disc ([13]; Candida albicans, ATCC90028): 26 mm
- zone of inhibition at 20 µg/disc [14]: 27 ± 1.35 mm
- Zone of Inhibition ([15]; 20 μg per disk): 24± 0.74 mm
- zone of inhibition at 20 µg/disc ([15]; Candida albicans): 24 mm
- Time by which lag phase was over [16]: 16 h
- Time by which lag phase was over [17]: 20 h
- Time by which lag phase was over [18]: 16 h

Structure (SMILES): OC[C@H]1OC(O)[C@H](O)[C@@H](O)[C@@H]1O (stereo partly shown) [Glucose, reference compound]
- Range of relative H+ efflux rate [19]: 54.95 ± 2.7 ×10^−6 mol min^−1 mg cells^−1
- Increase of the rate of H+ extrusion ([20]; 5 mM of glucose): 24%
- Range of relative H+ efflux rate ([20]; glucose 5mM alone): 40.00 ± 2.0 ×10^−6 mol min^−1 mg cells^−1
- Increase of the rate of H+ extrusion ([21]; 5 mM of glucose): 36%
- Range of relative H+ efflux rate ([21]; glucose 5mM alone): 43.33 ± 2.1 ×10^−6 mol min^−1 mg cells^−1

Structure (SMILES): COc1cccc2c1C(=O)c1c(O)c3c(c(O)c1C2=O)C[C@@](O)(C(=O)CO)C[C@@H]3O[C@H]1C[C@H](N)[C@H](O)[C@H](C)O1 [Doxorubicin]
- IC50 at 48 h [22]: > 5 µg/mL

Source: PMC5400251, “Effect of quinoline based 1,2,3-triazole and its structural analogues on growth and virulence attributes of Candida albicans” (PLoS ONE, 2017)
